Structures can show the parent of a compound that is named as a salt.
Columns and labels:
[1] = target: BRD4-BD1 (Homo sapiens (Human), UniProt O60885); assay: BRD4 AlphaScreen assay, BRD4-BD1; format: binding; details: biotin-labeled tetra-acetylated histone H4 peptide, 75 min, room temperature, read-out: BRD4 BD-1 enzyme IC50
Method: (§1) BRD4-BD1 and BRD4-BD2 assays were conducted in white 384-well polystyrene plate in a final volume of 20 μL for BD1 and 40 μL for BD2. Inhibitors were first serially diluted in DMSO and added to the plate wells before the addition of other reaction components. The final concentration of DMSO in the assay was 1.25% (BD1) and 0.83% (BD2). The assays were carried out at room temperature for 75 min. in the assay buffer (50 mM HEPES, pH 7.4, 100 mM NaCl, 0.05% CHAPS, 0.01% BSA), containing 50 nM Biotin-labeled tetra-acetylated histone H4 peptide (H4Ac4), 3.8 nM (BRD4-BD1, BPS Bioscience #31040) or 20 nM (BRD4-BD2, BPS Bioscience #31041). The reaction followed by the addition of 20 μL of assay buffer supplemented with Streptavidin donor beads (PerkinElmer 6760002) and GSH Acceptor beads (PerkinElmer-AL109C) at 4 μg/mL under reduced light. After plate sealing, the plate was incubated in the dark at room temperature for 75 min. before reading on a PHERAstar FS plate reader (BMG Labtech). IC50 determination was performed by fitting the curve of percent control activity versus the log of the inhibitor concentration using the GraphPad Prism 5.0 software.

[2] = target: BRD4-BD2 (Homo sapiens (Human), UniProt O60885); assay: BRD4 AlphaScreen assay, BRD4-BD2; format: binding; details: biotin-labeled tetra-acetylated histone H4 peptide, 75 min, room temperature, read-out: BRD4 BD-2 enzyme IC50
Method: as §1

IC50 [1] [nM] | IC50 [2] [nM] | SMILES
100 to 1000 | ≤ 100 | Cc1nnc2ccc3c(ccn3C(C)c3ccccc3)n12 (racemic) [Example 4, 1-methyl-6-(1-phenylethyl)-6H-pyrrolo[2,3-e][1,2,4]triazolo[4,3-a]pyridine]
100 to 1000 | 100 to 1000 | CCCCC(c1ccccc1)n1c(C)cc2c1ccc1nnc(C)n12 (racemic) [Example 24, 1,7-dimethyl-6-(1-phenylpentyl)-6H-pyrrolo[2,3-e][1,2,4]triazolo[4,3-a]pyridine]
100 to 1000 | 100 to 1000 | Cc1cc2c(ccc3nnc(C)n32)n1C(CO)c1ccccc1 (racemic) [Example 29, 2-(1,7-dimethyl-6H-pyrrolo[2,3-e][1,2,4]triazolo[4,3-a]pyridin-6-yl)-2-phenylethanol]
≤ 100 | ≤ 100 | Cc1nnc2ccc3c(cc(-c4ccn(C(C)CC#N)n4)n3Cc3ccccc3)n12 (racemic) [Example 87, 3-[3-(6-benzyl-1-methyl-6H-pyrrolo[2,3-e][1,2,4]triazolo[4,3-a]pyridin-7-yl)-1H-pyrazol-1-yl]butanenitrile Trifluoroacetate Salt]
≤ 100 | ≤ 100 | Cc1nnc2ccc3c(cc(-c4ccn(CC(C)C#N)n4)n3Cc3ccccc3)n12 (racemic) [Example 88, 3-[3-(6-benzyl-1-methyl-6H-pyrrolo[2,3-e][1,2,4]triazolo[4,3-a]pyridin-7-yl)-1H-pyrazol-1-yl]-2-methylpropanenitrile Trifluoroacetate Salt]
≤ 100 | ≤ 100 | Cc1cc2c(cc(NC3CCCN(C)C3)c3nnc(C)n32)n1Cc1ccccc1 (racemic) [Example 144, 6-benzyl-1,7-dimethyl-N-(1-methylpiperidin-3-yl)-6H-pyrrolo[2,3-e][1,2,4]triazolo[4,3-a]pyridin-4-amine]
≤ 100 | ≤ 100 | Cc1cc2c(cc(NC3CCN(C)C3)c3nnc(C)n32)n1Cc1ccccc1 (racemic) [Example 145, 6-benzyl-1,7-dimethyl-N-(1-methylpyrrolidin-3-yl)-6H-pyrrolo[2,3-e][1,2,4]triazolo[4,3-a]pyridin-4-amine bis(trifluoroacetate) Salt]
1000 to 10000 | 100 to 1000 | Cc1nnc2ccc3c(cc(C4CCNC4)n3Cc3ccccc3)n12 (racemic) [Example 186, 6-Benzyl-1-methyl-7-pyrrolidin-3-yl-6H-pyrrolo[2,3-e][1,2,4]triazolo[4,3-a]pyridine bis(trifluoroacetate) Salt]
1000 to 10000 | 1000 to 10000 | CC(=O)N1CCC(c2cc3c(ccc4nnc(C)n43)n2Cc2ccccc2)C1 (racemic) [Example 187, 7-(1-Acetylpyrrolidin-3-yl)-6-benzyl-1-methyl-6H-pyrrolo[2,3-e][1,2,4]triazolo[4,3-a]pyridine Trifluoroacetate Salt]
≤ 100 | ≤ 100 | Cc1nnc2ccc3c(cc(-c4ncco4)n3Cc3cc(Cl)cc(CN4CCC(O)C4)c3)n12 (racemic) [Example 199, 1-(3-Chloro-5-{[1-methyl-7-(1,3-oxazol-2-yl)-6H-pyrrolo[2,3-e][1,2,4]triazolo[4,3-a]pyridin-6-yl]methyl}benzyl)pyrrolidin-3-ol bis(trifluoroacetate) Salt (Racemic)]
≤ 100 | ≤ 100 | Cc1cc2c(cc(N[C@H]3CCN(C)[C@H](C)C3)c3nnc(C)n32)n1Cc1ccccc1 (racemic) [Example 225, 6-Benzyl-N-[(2R,4S)-1,2-dimethylpiperidin-4-yl]-1,7-dimethyl-6H-pyrrolo[2,3-e][1,2,4]triazolo[4,3-a]pyridin-4-amine and 6-Benzyl-N-[(2S,4R)-1,2-dimethylpiperidin-4-yl]-1,7-dimethyl-6H-pyrrolo[2,3-e][1,2,4]triazolo[4,3-a]pyridin-4-amine]
– | 100 to 1000 | Cc1cc2c(ccc3nnc(C)n32)n1S(=O)(=O)c1ccccc1 [Example 2a, 1,7-dimethyl-6-(phenylsulfonyl)-6H-pyrrolo[2,3-e][1,2,4]triazolo[4,3-a]pyridine]
